Reference: US20240287154A1, “MC3R AGONIST PEPTIDES” (The Regents of the University of Michigan, priority 2021, published 2024)
Non-standard residues stand in square brackets, D forms with d. Residues, ends and D or L forms follow the SMILES beside them. d(αMeW) = C[C@@](N)(Cc1c[nH]c2ccccc12)C(=O)O; Phe(4-I) = N[C@@H](Cc1ccc(I)cc1)C(=O)O; NMeH = CN[C@@H](Cc1c[nH]cn1)C(=O)O; NMeK = CN[C@@H](CCCCN)C(=O)O; Nle = CCCC[C@H](N)C(=O)O; dAbu = CC[C@@H](N)C(=O)O; Aib = CC(C)(N)C(=O)O

Molecular target: human MC4R (Homo sapiens, UniProt P32245)
Experiment: Intracellular cAMP levels in live cells, MC3R selectivity relative to MC4R
Assay type: cell-based
Details: cAMP assays in human MC3R and human MC4R stable cell lines
Procedure: The stable cell lines were grown and maintained in selection media consisting of Dulbecco's modified Eagle media (DMEM) with 4.5 g/l D-glucose, and 4 mM L-glutamine (Thermo Fisher Scientific, Waltham, MA), supplemented with 10% fetal bovine serum, 100 units/ml penicillin, 100 μg/ml streptomycin, 2.5 μg/ml amphotericin B, 200 μg/ml hygromycin B (for positive selection of the GScAMP22f luciferase reporter), and Geneticin™ (G418) 700 μg/ml (for MC3R or MC4R selection). Actual serum concentration during the assay is estimated to be about 1%. Cell line identity is routinely verified by qPCR and MC3R- and MC4R-specific oligonucleotides.
The assay for the determination of the CAMP response in live cells was described previously. […] Ccells were seeded at a density of 20,000 cells per well using 384-well poly-D lysine-coated, clear bottom, and black-wall assay plates (Corning Inc. Corning, NJ). Cells were allowed to attach to the plates for 18 to 24 h after which growth media was removed and 20 ul of 4% D-luciferin (Promega) in CO2 independent, serum-free medium (Thermo Fisher Scientific) was added to each well. […] Intracellular cAMP levels were measured using an FDSS 7000EX Functional Drug Screening System (Hamamatsu Photonics, Hamamatsu, Japan) in the Center for Chemical Genomics at the Life Sciences Institute. This instrument allowed the in-line addition of test-peptides and receptor agonists while simultaneously acquiring the luminescence signal from live cells. […] A submaximal forskolin (20 μM) concentration was also included to serve as a normalization reference to account for cell number variations and differences in assay transducer efficiency between cell lines.
With this set up it was possible to evaluate the direct agonist effect of the test-peptides on the MC3R and MC4R cell lines during measurement window 1, while the antagonist profile in the presence of EC90 α-MSH was determined on measurement window 2. […] EC50 or IC50 potency values were determined by non-linear regression by fitting the data to a sigmoid four-parameter variable slope model using the GraphPad Prism version 8.4 software package (San Diego CA).

Sequence of human MC4R (P32245 whole entry): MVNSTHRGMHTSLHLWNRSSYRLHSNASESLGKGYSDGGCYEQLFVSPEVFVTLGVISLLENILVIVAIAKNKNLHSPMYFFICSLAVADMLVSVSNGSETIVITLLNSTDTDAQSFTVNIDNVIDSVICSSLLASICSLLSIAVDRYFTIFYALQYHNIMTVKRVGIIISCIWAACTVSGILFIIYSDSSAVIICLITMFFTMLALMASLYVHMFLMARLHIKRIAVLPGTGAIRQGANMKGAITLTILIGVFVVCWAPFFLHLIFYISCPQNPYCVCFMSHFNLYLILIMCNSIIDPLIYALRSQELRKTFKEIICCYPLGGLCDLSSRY

| SMILES | MC3R selectivity (relative to MC4R) |
| --- | --- |
| CCCC[C@H](NC(C)=O)C(=O)NCC(=O)N[C@@H](Cc1c[nH]cn1)C(=O)N[C@@H](Cc1ccccc1)C(=O)N[C@@H](CCCNC(=N)N)C(=O)N[C@H](Cc1c[nH]c2ccccc12)C(=O)N[C@@H](CC(=O)O)C(=O)N[C@@H](CCCNC(=N)N)C(=O)N[C@@H](Cc1ccccc1)C(=O)NCC(=O)O [CTX-1185, Nle-Gly-His-Phe-Arg-D-Trp-Asp-Arg-Phe-Gly] (Ac-[Nle]GHFR[dW]DRFG-OH) | 2,312 |
| CCCC[C@H](NC(C)=O)C(=O)N[C@H](C)C(=O)N(C)[C@@H](Cc1c[nH]cn1)C(=O)N[C@@H](Cc1ccccc1)C(=O)N[C@@H](CCCNC(=N)N)C(=O)N[C@H](Cc1c[nH]c2ccccc12)C(=O)N[C@@H](CC(=O)O)C(=O)N[C@@H](CCCNC(=N)N)C(=O)N[C@@H](Cc1ccccc1)C(=O)NCC(=O)O [CTX-1186, Nle-D-Ala-NMe-His-Phe-Arg-D-Trp-Asp-Arg-Phe-Gly] (Ac-[Nle][dA][NMeH]FR[dW]DRFG-OH) | 1884 |
| CCCC[C@H](NC(C)=O)C(=O)N[C@H](C)C(=O)N(C)[C@@H](CCCCN)C(=O)N[C@@H](Cc1ccccc1)C(=O)N[C@@H](CCCNC(=N)N)C(=O)N[C@H](Cc1c[nH]c2ccccc12)C(=O)N[C@@H](CC(=O)O)C(=O)N[C@@H](CCCNC(=N)N)C(=O)N[C@@H](Cc1ccccc1)C(=O)NCC(=O)O [CTX-1189, Nle-D-Ala-NMe-Lys-Phe-Arg-D-Trp-Asp-Arg-Phe-Gly] (Ac-[Nle][dA][NMeK]FR[dW]DRFG-OH) | 1 |
| CC[C@@H](NC(=O)[C@H](CCC(=O)O)NC(=O)[C@@H](NC(=O)[C@H](Cc1ccc(O)cc1)NC(C)=O)C(C)C)C(=O)N[C@@H](Cc1c[nH]cn1)C(=O)N[C@@H](Cc1ccc(I)cc1)C(=O)N[C@@H](CCCNC(=N)N)C(=O)N[C@H](Cc1c[nH]c2ccccc12)C(=O)N[C@@H](CC(=O)O)C(=O)N[C@@H](CCCNC(=N)N)C(=O)N[C@@H](Cc1ccccc1)C(=O)NCC(=O)O [CTX-1194, Tyr-Val-Glu-D-Abu-His-Phe(4-I)-Arg-D-Trp-Asp-Arg-Phe-Gly] (Ac-YVE[dAbu]H[Phe(4-I)]R[dW]DRFG-OH) | 49 |
| CC(=O)N[C@@H](Cc1ccc(O)cc1)C(=O)N[C@H](C(=O)N[C@@H](CCC(=O)O)C(=O)NC(C)(C)C(=O)N[C@@H](Cc1c[nH]cn1)C(=O)N[C@@H](Cc1ccc(I)cc1)C(=O)N[C@@H](CCCNC(=N)N)C(=O)N[C@H](Cc1c[nH]c2ccccc12)C(=O)N[C@@H](CC(=O)O)C(=O)N[C@@H](CCCNC(=N)N)C(=O)N[C@@H](Cc1ccccc1)C(=O)NCC(=O)O)C(C)C [CTX-1195, Tyr-Val-Glu-Aib-His-Phe(4-I)-Arg-D-Trp-Asp-Arg-Phe-Gly] (Ac-YVE[Aib]H[Phe(4-I)]R[dW]DRFG-OH) | 51 |
| CCCC[C@H](NC(C)=O)C(=O)N[C@H](C)C(=O)N[C@@H](CCCNC(=N)N)C(=O)N[C@@H](Cc1ccc(I)cc1)C(=O)N[C@@H](CCCNC(=N)N)C(=O)N[C@H](Cc1c[nH]c2ccccc12)C(=O)N[C@@H](CC(=O)O)C(=O)N[C@@H](CCCNC(=N)N)C(=O)N[C@@H](Cc1ccccc1)C(=O)NCC(=O)O [CTX-1197, Nle-D-Ala-Arg-Phe(4-I)-Arg-D-Trp-Asp-Arg-Phe-Gly] (Ac-[Nle][dA]R[Phe(4-I)]R[dW]DRFG-OH) | 250 |
| CCCC[C@H](NC(C)=O)C(=O)N[C@H](C)C(=O)N[C@@H](Cc1c[nH]cn1)C(=O)N[C@@H](Cc1ccc(I)cc1)C(=O)N[C@H](CCCNC(=N)N)C(=O)N[C@@H](Cc1c[nH]c2ccccc12)C(=O)N[C@@H](CC(=O)O)C(=O)N[C@@H](CCCNC(=N)N)C(=O)N[C@@H](Cc1ccccc1)C(=O)NCC(=O)O [CTX-1501, Nle-D-Ala-His-Phe(4-I)-D-Arg-Trp-Asp-Arg-Phe-Gly] (Ac-[Nle][dA]H[Phe(4-I)][dR]WDRFG-OH) | 0.01 |
| CCCC[C@H](NC(C)=O)C(=O)N[C@H](C)C(=O)N[C@@H](Cc1c[nH]cn1)C(=O)N[C@@H](Cc1ccc(I)cc1)C(=O)N[C@@H](CCCNC(=N)N)C(=O)N[C@H](Cc1ccccc1)C(=O)N[C@@H](CC(=O)O)C(=O)N[C@@H](CCCNC(=N)N)C(=O)N[C@@H](Cc1ccccc1)C(=O)NCC(=O)O [CTX-1503, Nle-D-Ala-His-Phe(4-I)-Arg-D-Phe-Asp-Arg-Phe-Gly] (Ac-[Nle][dA]H[Phe(4-I)]R[dF]DRFG-OH) | 214 |
| CCCC[C@H](NC(C)=O)C(=O)N[C@H](C)C(=O)N[C@@H](Cc1c[nH]cn1)C(=O)N[C@@H](Cc1ccccc1)C(=O)N[C@@H](CCCNC(=N)N)C(=O)N[C@](C)(Cc1c[nH]c2ccccc12)C(=O)N[C@@H](CC(=O)O)C(=O)N[C@@H](CCCNC(=N)N)C(=O)N[C@@H](Cc1ccccc1)C(=O)NCC(=O)O [CTX-1510, Nle-D-Ala-His-Phe-Arg-aMe-D-Trp-Asp-Arg-Phe-Gly] (Ac-[Nle][dA]HFR[d(αMeW)]DRFG-OH) | 23 |
| CCCC[C@H](NC(C)=O)C(=O)N[C@H](C)C(=O)N[C@@H](Cc1c[nH]cn1)C(=O)N[C@@H](Cc1ccccc1)C(=O)N[C@@H](CCCCN)C(=O)N[C@H](Cc1c[nH]c2ccccc12)C(=O)N[C@@H](CC(=O)O)C(=O)N[C@@H](CCCNC(=N)N)C(=O)N[C@@H](Cc1ccccc1)C(=O)NCC(=O)O [CTX-1523, Nle-D-Ala-His-Phe-Lys-D-Trp-Asp-Arg-Phe-Gly] (Ac-[Nle][dA]HFK[dW]DRFG-OH) | 5,321 |
| CCCC[C@H](NC(C)=O)C(=O)N[C@H](C)C(=O)N[C@@H](Cc1c[nH]cn1)C(=O)N[C@@H](Cc1ccccc1)C(=O)N[C@@H](CCCNC(=N)N)C(=O)N[C@H](Cc1c[nH]c2ccccc12)C(=O)N[C@H](Cc1ccccc1)C(=O)N[C@@H](CCCNC(=N)N)C(=O)N[C@@H](Cc1ccccc1)C(=O)NCC(=O)O [CTX-1530, Nle-D-Ala-His-Phe-Arg-D-Trp-D-Phe-Arg-Phe-Gly] (Ac-[Nle][dA]HFR[dW][dF]RFG-OH) | 15 |
| CCCC[C@H](NC(C)=O)C(=O)N[C@H](C)C(=O)N[C@@H](Cc1c[nH]cn1)C(=O)N[C@@H](Cc1ccccc1)C(=O)N[C@@H](CCCNC(=N)N)C(=O)N[C@H](Cc1c[nH]c2ccccc12)C(=O)N[C@@H](CCCC)C(=O)N[C@@H](CCCNC(=N)N)C(=O)N[C@@H](Cc1ccccc1)C(=O)NCC(=O)O [CTX-1532, Nle-D-Ala-His-Phe-Arg-D-Trp-Nle-Arg-Phe-Gly] (Ac-[Nle][dA]HFR[dW][Nle]RFG-OH) | 184 |
| CCCC[C@H](NC(C)=O)C(=O)N[C@H](C)C(=O)N[C@@H](Cc1c[nH]cn1)C(=O)N[C@@H](Cc1ccccc1)C(=O)N[C@@H](CCCNC(=N)N)C(=O)N[C@H](Cc1c[nH]c2ccccc12)C(=O)N[C@@H](CCCCN)C(=O)N[C@@H](CCCNC(=N)N)C(=O)N[C@@H](Cc1ccccc1)C(=O)NCC(=O)O [CTX-1533, Nle-D-Ala-His-Phe-Arg-D-Trp-Lys-Arg-Phe-Gly] (Ac-[Nle][dA]HFR[dW]KRFG-OH) | 314 |
| CCCC[C@H](NC(C)=O)C(=O)N[C@H](C)C(=O)N[C@@H](Cc1c[nH]cn1)C(=O)N[C@@H](Cc1ccccc1)C(=O)N[C@@H](CCCNC(=N)N)C(=O)N[C@H](Cc1c[nH]c2ccccc12)C(=O)N[C@@H](CC(=O)O)C(=O)N[C@@H](C)C(=O)N[C@@H](Cc1ccccc1)C(=O)NCC(=O)O [CTX-1534, Nle-D-Ala-His-Phe-Arg-D-Trp-Asp-Ala-Phe-Gly] (Ac-[Nle][dA]HFR[dW]DAFG-OH) | 186 |
| CCCC[C@H](NC(C)=O)C(=O)N[C@H](C)C(=O)N[C@@H](Cc1c[nH]cn1)C(=O)N[C@@H](Cc1ccccc1)C(=O)N[C@@H](CCCNC(=N)N)C(=O)N[C@H](Cc1c[nH]c2ccccc12)C(=O)N[C@@H](CC(=O)O)C(=O)N[C@@H](CCCCN)C(=O)N[C@@H](Cc1ccccc1)C(=O)NCC(=O)O [CTX-1535, Nle-D-Ala-His-Phe-Arg-D-Trp-Asp-Lys-Phe-Gly] (Ac-[Nle][dA]HFR[dW]DKFG-OH) | 1,589 |
| CCCC[C@H](NC(C)=O)C(=O)N[C@H](C)C(=O)N[C@@H](Cc1c[nH]cn1)C(=O)N[C@@H](Cc1ccccc1)C(=O)N[C@@H](CCCNC(=N)N)C(=O)N[C@H](Cc1c[nH]c2ccccc12)C(=O)N[C@@H](CC(=O)O)C(=O)N[C@@H](CCCNC(=N)N)C(=O)N1CCC[C@H]1C(=O)NCC(=O)O [CTX-1536, Nle-D-Ala-His-Phe-Arg-D-Trp-Asp-Arg-Pro-Gly] (Ac-[Nle][dA]HFR[dW]DRPG-OH) | 72 |
| CCCC[C@H](NC(C)=O)C(=O)N[C@H](C)C(=O)N[C@@H](Cc1c[nH]cn1)C(=O)N[C@@H](Cc1ccccc1)C(=O)N[C@@H](CCCNC(=N)N)C(=O)N[C@H](Cc1c[nH]c2ccccc12)C(=O)N[C@@H](CC(=O)O)C(=O)N[C@@H](CCCNC(=N)N)C(=O)N[C@@H](C)C(=O)NCC(=O)O [CTX-1537, Nle-D-Ala-His-Phe-Arg-D-Trp-Asp-Arg-Ala-Gly] (Ac-[Nle][dA]HFR[dW]DRAG-OH) | 278 |
